From patent US5886011A, “Piperidine derivatives as substance P antagonists” (Hisamitsu Pharmaceutical Co., Inc., priority 1995, dated 1999)
Structures can show the parent of a compound that is named as a salt. Where two headings read alike, the source gives them in different places.

Key:
[1] = target: T1, Substance P receptor (guinea pig ileum longitudinal muscle) (Cavia porcellus, UniProt P30547); assay: Receptor-binding test ([125I]SP ligand, guinea pig ileum longitudinal muscle receptor samples); conditions: 10^-8 M compound; [125I]SP 50 pM, 22° C., 20 minutes
T1 construct: ileum was removed and the longitudinal muscle was stripped off; from tissue; host or cells: guinea pig ileum longitudinal muscle, washed membrane pellets
Description: To the longitudinal muscles, 20 times of the wet weight of the buffer solution (1) (50 mM tris-HCl buffer solution containing 2 mM MgCl2 and 0.1 mM phenyl methyl sulfonyl-fluoride, pH 7.4) was added. The mixture was homogenized under ice-cooling and centrifuged at 48,000×G for 15 minutes. After removing the supernatant, the pellets were re-suspended in the buffer solution (1) and centrifuged at 48,000×G for 15 minutes. The buffer solution (2) (50 mM tris.HCl buffer solution containing 10 mM ethylenediaminetetraacetic acid and 300 mM KCl, pH 7.4) was added to the pellets and suspended to be reacted under ice-cooling for 60 minutes. The resulted reaction materials were centrifuged at 48,000×G for 15 minutes. After suspending the pellets in the buffer solution (1) and distributing, the mixture were centrifuged at 48,000×G for 15 minutes. The pellets were stored at -80° C. until used as receptor samples.
Thus obtained receptor samples were suspended in 50 mM tris-HCl buffer solution to be used. As the buffer solution, binding buffer solution (tris.HCl buffer solution containing 0.02% bovine serum albumin, 40 μg/ml bacitracin, 4 μg/ml chymostatin, 4 μg/ml leupeptin and 3 mM MnCl2, pH7.4) was used.

[2] = system: Substance P (guinea pig ileum); assay: Bioassay test: Substance P-induced contraction of guinea pig ileum strips; conditions: 10^-7 M compound; contraction by 10^-8 M Substance P regarded as 100%
Description: B. Bioassay Test […] After exsanguinating guinea pigs (body weight: 500-600 g) deadly, ileum was removed and 2 cm of ileum strips were prepared. In a Tyrode's solution (10 ml, 37° C.) in which air is passed, containing 5.2 μM atropine and 4.1 μM indomethacin, the strips having 0.5 g resting tension was suspended, and contractions of muscle were recorded on a recording device (RTA-1200, manufactured by Nihon Kohden) via an isotonic transducer (TB-612T, manufactured by Nihon Kohden). Using three specimens per one group, effects of the subject drugs on the muscle contraction caused by 10^-8 M Substance P were determined.

Substance P = assay: Antagonism test on Substance P-induced airway edema; format: in vivo, guinea pig (hartley male); conditions: Cavia porcellus, po, read-out: Inhibition Rate (airway edema, dye transudated into trachea and main bronchi)
Description: C. Antagonism Test on Substance P-induced Airway Edema
20 mg/kg of Evans' Blue and 1 nm/kg Substance P containing 200 I.U./kg of heparin were administered intravenously to hartley male guinea pigs in order to induce airway edema. After ten minutes, the guinea pigs were exsanguinated deadly. The amounts of the dye transudated into trachea and main bronchi were determined. 1 mg/kg of the subject compounds were administered orally at thirty minutes before the induction. […] Further, for comparison, the following compounds A and B were used.

cisplatin-induced emesis = assay: Anti-emetic effect against cisplatin-induced emesis; format: in vivo, ferret (male); conditions: 1 mg/kg orally just after cisplatin (10 mg/kg i.p.); compared to the control group
Description: D. Anti-emetic Effect against Cisplatin-induced Emesis
The test was carried out using male ferret (approx. 1.5 kg.). Emesis was induced by intraperitoneal administration of cisplatin (10 mg/kg). 1 mg/kg of the subject compounds were administered orally just after the cisplatin administration. The results will be shown in Table 3 as the inhibition rates compared to the control group, using the number of vomits as indexes. Further, for comparisons, the following compounds A and C were used.

[3] = 1 mg/kg orally, thirty minutes before induction, compared to the control group

T1 sequence (P30547 whole entry): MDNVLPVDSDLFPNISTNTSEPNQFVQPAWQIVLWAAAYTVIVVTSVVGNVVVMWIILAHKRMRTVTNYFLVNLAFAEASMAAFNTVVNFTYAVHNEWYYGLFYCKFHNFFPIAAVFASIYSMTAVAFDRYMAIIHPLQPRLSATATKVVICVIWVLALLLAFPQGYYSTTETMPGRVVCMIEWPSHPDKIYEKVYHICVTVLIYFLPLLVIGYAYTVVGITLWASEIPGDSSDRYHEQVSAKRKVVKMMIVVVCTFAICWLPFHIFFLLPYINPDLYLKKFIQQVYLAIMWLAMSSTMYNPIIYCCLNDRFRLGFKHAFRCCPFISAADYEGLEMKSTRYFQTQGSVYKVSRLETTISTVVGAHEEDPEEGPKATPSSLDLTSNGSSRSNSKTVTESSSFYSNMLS

Structure (SMILES) | inhibition at 0.01 µM [1] | Contriction Inhibition [2] | inhibition in vivo at 1 mg/kg (Substance P) | Inhibition Rate (number of vomits) (cisplatin-induced emesis) | inhibition in vivo at 1 mg/kg (Substance P; [3])
CC1Cc2cccc(CN[C@H]3CCCN[C@H]3c3ccccc3)c2O1.Cl (single isomer, unassigned) [Example 3, hydrochloride] | 96% | – | – | – | –
CC1Cc2cccc(CN[C@H]3CCCN[C@H]3c3ccccc3)c2O1.Cl (single isomer, unassigned) [Example 3] | – | 93.2% | – | – | –
COc1ccc(OC(F)(F)F)cc1CN[C@H]1CCCN[C@H]1c1ccccc1 [Compound B, (2S,3S)-3-(2-methoxy-5-trifluoromethoxybenzyl)amino-2-phenylpiperidine hydrochloride, reference compound] | – | – | 44% | – | –
COc1ccc(C(C)C)cc1CN[C@@H]1CN2CCC1CC2.Cl [Compound C, (2S,3S)-N-(5-isopropyl-2-methoxyphenyl)methyl-1-azabicyclo[2,2,2]octane-3-amine hydrochloride, reference compound] | – | – | – | 10% | –
CC1(C)Cc2cccc(CN[C@H]3CCCN[C@H]3c3ccccc3)c2O1.Cl [Example 2, (2S,3S)-3-[(2,2-dimethyl-2,3-dihydrobenzofuran-7-yl)methyl]amino-2-phenylpiperidine hydrochloride] | 74.8% | 47.0% | – | – | –
CC1(C)Cc2cc([N+](=O)[O-])cc(CN[C@H]3CCCN[C@H]3c3ccccc3)c2O1.Cl [Example 4, (2S,3S)-3-[(2,2-dimethyl-5-nitro-2,3-dihydrobenzofuran-7-yl)methyl]amino-2-phenylpiperidine hydrochloride] | 89.7% | 60.2% | – | – | –
CSc1cc(CN[C@H]2CCCN[C@H]2c2ccccc2)c2c(c1)CC(C)(C)O2.Cl [Example 5, (2S,3S)-3-[(2,2-dimethyl-5-methylthio-2,3-dihydrobenzofuran-7-yl)methyl]amino-2-phenylpiperidine hydrochloride] | 91.8% | 80.5% | – | – | –
CC1(C)Cc2cc(S(C)(=O)=O)cc(CN[C@H]3CCCN[C@H]3c3ccccc3)c2O1.Cl [Example 6, (2S,3S)-3-[(2,2-dimethyl-5-methylsulfonyl-2,3-dihydrobenzofuran-7-yl)methyl]amino-2-phenylpiperidine hydrochloride] | 74.8% | 50.9% | – | – | –
CN(C)S(=O)(=O)c1cc(CN[C@H]2CCCN[C@H]2c2ccccc2)c2c(c1)CC(C)(C)O2.Cl [Example 7, (2S,3S)-3-[(2,2-dimethyl-5-dimethylaminosulfonyl-2,3-dihydrobenzofuran-7-yl)methyl]amino-2-phenylpiperidine hydrochloride] | 54% | 15.0% | – | – | –
CC1Cc2cc(S(=O)(=O)N(C)C)cc(CN[C@H]3CCCN[C@H]3c3ccccc3)c2O1 (stereo partly drawn) [Example 8, (2S,3S)-3-[(5-dimethlaminosulfonyl-2-methyl-2,3-dihydrobenzofuran-7-yl)methyl]amino-2-phenylpiperidine hydrochloride] | 92% | 85.0% | – | – | –
Cl.c1ccc([C@@H]2NCCC[C@@H]2NCc2ccc3c(c2)OCO3)cc1 [Example 9, (2S,3S)-3-(3,4-methylenedioxybenzyl)amino-2-phenylpiperidine hydrochloride] | 36.6% | 5.5% | – | – | –
c1ccc([C@@H]2NCCC[C@@H]2NCc2cccc3c2OCCC3)cc1 [Example 10, (2S,3S)-3-[(3,4-dihydro-1,2-benzopyran-8-yl)methyl]amino-2-phenylpiperidinehydrochloride] | 86.2% | 61.8% | – | – | –
CC1(C)Cc2cc(Cl)cc(CN[C@H]3CCCN[C@H]3c3ccccc3)c2O1.Cl [Example 11, (2S,3S)-3-[(5-chloro-2,2-dimethyl-2,3-dihydrobenzofuran-7-yl)methyl]amino-2-phenylpiperidine hydrochloride] | 85.8% | 58.2% | – | – | –
COc1cc(CN[C@H]2CCCN[C@H]2c2ccccc2)c2c(c1)CC(C)(C)O2 [Example 12, (2S,3S)-3-[(2,2-dimethyl-5-methoxy-2,3-dihydrobenzofuran-7-yl)methyl]amino-2-phenylpiperldine hydrochloride] | 82.2% | 43.0% | – | – | –
Cl.c1ccc([C@@H]2NCCC[C@@H]2NCc2cccc3c2OCC3)cc1 [Example 13, (2S,3S)-3-[(2,3-dihydrobenzofuran-7-yl)methyl]amino-2-phenylpiperidine hydrochloride] | 84.7% | 47.4% | – | – | –
CC1Cc2cc(Cl)cc(CN[C@H]3CCCN[C@H]3c3ccccc3)c2O1.Cl (stereo partly drawn) [Example 14, (2S,3S)-3-[(5-chloro-2-methyl-2,3-dihydrobenzofuran-7-yl)methyl]amino-2-phenylpiperidine hydrochloride] | 93.5% | 92.3% | – | – | –
COc1cc(CN[C@H]2CCCN[C@H]2c2ccccc2)c2c(c1)CC(C)O2.Cl (stereo partly drawn) [Example 15, (2S,3S)-3-[(5-methoxy-2-methyl-2,3-dihydrobenzofuran-7-yl)methyl]amino-2-phenylpiperidine hydrochloride] | 88.1% | 75.2% | – | – | –
Cc1ccc(CN[C@H]2CCCN[C@H]2c2ccccc2)c2c1CC(C)(C)O2 [Example 16, (2S,3S)-3-[2,2,4-trimethyl-2,3-dihydrobenzofuran-7-yl)methyl]amino-2-phenylpiperidine hydrochloride] | 82.5% | 78.3% | – | – | –
Cc1cc(CN[C@H]2CCCN[C@H]2c2ccccc2)c2c(c1)CC(C)(C)O2.Cl [Example 17, (2S,3S)-3-[(2,2,5-trimethyl-2,3-dihydrobenzofuran-7-yl)methyl]amino-2-phenylpiperidine hydrochloride] | 94.2% | 94.6% | – | – | –
CC1(C)Cc2c(Cl)ccc(CN[C@H]3CCCN[C@H]3c3ccccc3)c2O1.Cl [Example 18, (2S,3S)-3-[(4-chloro-2,2-dimethyl-2,3-dihydrobenzofuran-7-yl)methyl]amino-2-phenylpiperidine hydrochloride] | 89.9% | 81.2% | – | – | –
Cl.c1ccc([C@@H]2NCCC[C@@H]2NCc2ccc3c(c2)OCCO3)cc1 [Example 19, (2S,3S)-3-(3,4-ethylenedioxybenzyl)amino-2-phenylpiperidine hydrochloride] | 48.7% | 22.1% | – | – | –
CC1Oc2c(CN[C@H]3CCCN[C@H]3c3ccccc3)cccc2C1C.Cl (stereo partly drawn) [Example 20, (2S,3S)-3-[(2,3-dimethyl-2,3-dihydrobenzofuran-7-yl)methyl]amino-2-phenylpiperidine hydrochloride] | 65% | 38.9% | – | – | –
Cc1ccc(CN[C@H]2CCCN[C@H]2c2ccccc2)c2c1C(C)C(C)O2.Cl (stereo partly drawn) [Example 21, (2S,3S)-3-[(2,3,4-trimethyl-2,3-dihydrobenzofuran-7-yl)methyl]amino-2-phenylpiperidine hydrochloride] | 53.1% | 13.4% | – | – | –
CC(C)(C)c1cc2c(c(CN[C@H]3CCCN[C@H]3c3ccccc3)c1)OCC2.Cl [Example 24, (2S,3S)-3-[(5-tert-butyl-2,3-dihydrobenzofuran-7-yl)methyl]amino-2-phenylpiperidine hydrochloride] | 50.3% | 69.5% | – | – | 64%
Cl.c1ccc([C@@H]2NCCC[C@@H]2NCc2cc(C3CCCCC3)cc3c2OCC3)cc1 [Example 26, (2S,3S)-3-[(5-cyclohexyl-2,3-dihydrobenzofuran-7-yl)methyl]amino-2-phenylpiperidine hydrochloride] | 56.4% | 62.1% | – | – | 61%
